This is an account of results in ChEMBL document CHEMBL5442334, “ASAP - In vitro safety pharmacology profile” (2024).

A word on the inhibition: it is the drop in the measured response relative to a control, in per cent. The term Inhibition denotes the percentage by which the read-out fell short of the control.

The target in series [1] is Sodium-dependent noradrenaline transporter (Homo sapiens) (UniProt P23975). In words: SafetyScreen: NET Human Norepinephrine Transporter Binding Antagonist Radioligand LeadHunter Assay, catalogue number: 355. As to conditions: Test compound concentration 10.0 uM.
Chain of Sodium-dependent noradrenaline transporter (Homo sapiens) (P23975 whole entry): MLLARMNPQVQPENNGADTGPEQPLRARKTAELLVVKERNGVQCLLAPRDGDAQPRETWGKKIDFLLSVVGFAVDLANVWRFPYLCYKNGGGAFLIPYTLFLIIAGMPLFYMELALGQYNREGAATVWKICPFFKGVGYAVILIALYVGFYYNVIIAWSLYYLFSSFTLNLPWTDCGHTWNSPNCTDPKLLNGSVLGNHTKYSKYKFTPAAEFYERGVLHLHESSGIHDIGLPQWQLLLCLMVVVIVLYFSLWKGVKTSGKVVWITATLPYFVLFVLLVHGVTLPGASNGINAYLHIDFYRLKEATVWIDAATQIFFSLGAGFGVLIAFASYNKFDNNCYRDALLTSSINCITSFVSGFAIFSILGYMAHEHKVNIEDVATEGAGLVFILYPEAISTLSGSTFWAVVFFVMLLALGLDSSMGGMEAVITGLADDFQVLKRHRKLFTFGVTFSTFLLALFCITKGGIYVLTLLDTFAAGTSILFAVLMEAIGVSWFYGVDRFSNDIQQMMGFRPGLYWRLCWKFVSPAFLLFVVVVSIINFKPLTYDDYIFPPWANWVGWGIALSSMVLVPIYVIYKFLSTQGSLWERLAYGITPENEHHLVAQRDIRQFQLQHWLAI
Series [2] concerns the target GABA-A receptor; anion channel (Rattus norvegicus) (UniProt O09028+P15431+P18506+P18508+P19969+P20236+P23574+P23576+P28471+P28473+P30191+P62813+P63079+P63138+Q91ZM7+Q9ES14). In words: SafetyScreen: GABAA (Non-Selective) Rat Ion Channel [3H] Flunitrazepam Binding Agonist Radioligand LeadHunter Assay, catalogue number: 28. To be noted: Test compound concentration 10.0 uM. The series is classed as protein-complex assay.

The target in series [3] is Kappa-type opioid receptor (Homo sapiens) (UniProt P41145). In words: SafetyScreen: kappa (KOP) Human Opioid GPCR Binding Agonist Radioligand LeadHunter Assay, catalogue number: 4461. To be noted: Test compound concentration 10.0 uM.
Chain of Kappa-type opioid receptor (Homo sapiens) (P41145 whole entry): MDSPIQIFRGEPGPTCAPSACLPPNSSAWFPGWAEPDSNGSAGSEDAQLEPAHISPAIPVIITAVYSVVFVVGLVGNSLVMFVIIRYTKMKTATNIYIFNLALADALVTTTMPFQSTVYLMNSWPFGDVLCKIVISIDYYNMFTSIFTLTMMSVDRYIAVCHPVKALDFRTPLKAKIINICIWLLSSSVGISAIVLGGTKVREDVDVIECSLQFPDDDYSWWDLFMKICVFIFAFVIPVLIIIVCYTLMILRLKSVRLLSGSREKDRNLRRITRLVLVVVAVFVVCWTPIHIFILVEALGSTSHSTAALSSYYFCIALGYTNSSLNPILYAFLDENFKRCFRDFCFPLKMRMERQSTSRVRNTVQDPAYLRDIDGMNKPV
Series [4] addresses Histamine H1 receptor (Homo sapiens) (UniProt P35367). In words: SafetyScreen: H1 Human Histamine GPCR Binding Antagonist Radioligand LeadHunter Assay, catalogue number: 870. To be noted: Test compound concentration 10.0 uM.
Series [5] addresses Adenosine receptor A2a (Homo sapiens) (UniProt P29274). Nature of the series: SafetyScreen: A2A Human Adenosine GPCR Binding Agonist Radioligand LeadHunter Assay, catalogue number: 4. To be noted: Test compound concentration 10.0 uM.
Series [6] concerns the target Voltage-gated inwardly rectifying potassium channel KCNH2 (Homo sapiens, UniProt Q12809). Nature of the series: SafetyScreen: hERG Human Potassium Ion Channel [3H] Dofetilide Binding Antagonist Radioligand SafetyScreen, catalogue number: 4094. To be noted: at 10 µM, test compound concentration 10 uM. For orientation: The hERG channel carries a current that helps repolarise heart muscle cells.

The target of series [7] is T1, Muscarinic acetylcholine receptor M1 (Homo sapiens) (UniProt P11229).
T1 sequence (whole entry): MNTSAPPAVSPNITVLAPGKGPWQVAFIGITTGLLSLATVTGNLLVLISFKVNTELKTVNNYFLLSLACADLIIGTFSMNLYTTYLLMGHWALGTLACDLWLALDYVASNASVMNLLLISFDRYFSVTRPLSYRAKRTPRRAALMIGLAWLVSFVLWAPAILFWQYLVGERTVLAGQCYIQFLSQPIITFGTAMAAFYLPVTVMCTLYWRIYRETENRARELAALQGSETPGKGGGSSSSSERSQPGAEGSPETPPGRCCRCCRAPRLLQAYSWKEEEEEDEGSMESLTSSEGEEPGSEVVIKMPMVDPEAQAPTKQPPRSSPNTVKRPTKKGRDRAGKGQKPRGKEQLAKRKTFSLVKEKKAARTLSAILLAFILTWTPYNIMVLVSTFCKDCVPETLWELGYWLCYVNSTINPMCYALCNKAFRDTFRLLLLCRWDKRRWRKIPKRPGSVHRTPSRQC
Nature of the series: SafetyScreen: M1 Human Acetylcholine (Muscarinic) GPCR Binding Antagonist Radioligand LeadHunter Assay, catalogue number: 91. To be noted: Test compound concentration 10.0 uM.

Series [8] has as its target cGMP-inhibited 3',5'-cyclic phosphodiesterase 3A (Homo sapiens) (UniProt Q14432). In words: SafetyScreen: PDE3A Human Phosphodiesterase Enzymatic LeadHunter Assay, catalogue number: 4072. The series is classed as functional. As to conditions: Test compound concentration 10.0 uM.
Series [9] concerns the target Beta-2 adrenergic receptor (Homo sapiens) (UniProt P07550). In words: SafetyScreen: beta2 Human Adrenoceptor GPCR Binding Antagonist Radioligand LeadHunter Assay, catalogue number: 20. As to conditions: Test compound concentration 10.0 uM.
Series [10] has as its target Tyrosine-protein kinase Lck (Homo sapiens) (UniProt P06239). In words: SafetyScreen: Lck Human TK Kinase Enzymatic TR-FRET [Km ATP] LeadHunter Assay, catalogue number: 2906. The series is classed as functional. To be noted: Test compound concentration 10.0 uM.
For series [11], the target named is D(1A) dopamine receptor (Homo sapiens) (UniProt P21728). In words: SafetyScreen: D1 Human Dopamine GPCR Binding Antagonist Radioligand LeadHunter Assay, catalogue number: 44. As to conditions: Test compound concentration 10.0 uM.
Chain of D(1A) dopamine receptor (Homo sapiens) (P21728 whole entry): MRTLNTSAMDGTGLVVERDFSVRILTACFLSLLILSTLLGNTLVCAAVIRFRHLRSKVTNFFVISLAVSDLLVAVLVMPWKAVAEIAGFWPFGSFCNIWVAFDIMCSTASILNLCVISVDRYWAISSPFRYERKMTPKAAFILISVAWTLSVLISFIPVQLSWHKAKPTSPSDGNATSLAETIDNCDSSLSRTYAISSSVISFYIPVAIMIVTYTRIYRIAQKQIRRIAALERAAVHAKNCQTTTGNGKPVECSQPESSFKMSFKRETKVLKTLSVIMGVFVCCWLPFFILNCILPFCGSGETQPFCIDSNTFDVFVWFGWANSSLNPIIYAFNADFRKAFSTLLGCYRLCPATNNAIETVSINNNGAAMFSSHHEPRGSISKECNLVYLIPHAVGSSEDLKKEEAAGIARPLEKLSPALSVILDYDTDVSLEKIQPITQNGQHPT
In series [12] the target is T2, 5-hydroxytryptamine receptor 3A (Homo sapiens) (UniProt P46098).
T2 sequence (whole entry): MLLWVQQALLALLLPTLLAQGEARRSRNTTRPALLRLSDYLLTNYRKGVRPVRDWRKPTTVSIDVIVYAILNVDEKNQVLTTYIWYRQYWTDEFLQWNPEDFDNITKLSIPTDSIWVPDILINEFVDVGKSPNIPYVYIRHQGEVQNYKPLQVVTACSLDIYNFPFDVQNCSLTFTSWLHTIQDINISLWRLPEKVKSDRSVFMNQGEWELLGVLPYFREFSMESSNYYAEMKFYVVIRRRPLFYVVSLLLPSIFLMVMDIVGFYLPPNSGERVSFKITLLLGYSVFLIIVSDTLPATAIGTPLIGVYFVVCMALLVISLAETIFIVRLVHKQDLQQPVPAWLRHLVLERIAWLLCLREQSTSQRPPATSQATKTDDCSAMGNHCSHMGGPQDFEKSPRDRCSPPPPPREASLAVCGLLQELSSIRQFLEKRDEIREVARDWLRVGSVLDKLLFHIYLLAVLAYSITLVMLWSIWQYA
Nature of the series: SafetyScreen: 5-HT3 Human Serotonin Ion Channel Binding Antagonist Radioligand LeadHunter Assay, catalogue number: 411. As to conditions: Test compound concentration 10.0 uM.

Series [13] has as its target T3, Endothelin-1 receptor (Homo sapiens) (UniProt P25101).
T3 sequence (whole entry): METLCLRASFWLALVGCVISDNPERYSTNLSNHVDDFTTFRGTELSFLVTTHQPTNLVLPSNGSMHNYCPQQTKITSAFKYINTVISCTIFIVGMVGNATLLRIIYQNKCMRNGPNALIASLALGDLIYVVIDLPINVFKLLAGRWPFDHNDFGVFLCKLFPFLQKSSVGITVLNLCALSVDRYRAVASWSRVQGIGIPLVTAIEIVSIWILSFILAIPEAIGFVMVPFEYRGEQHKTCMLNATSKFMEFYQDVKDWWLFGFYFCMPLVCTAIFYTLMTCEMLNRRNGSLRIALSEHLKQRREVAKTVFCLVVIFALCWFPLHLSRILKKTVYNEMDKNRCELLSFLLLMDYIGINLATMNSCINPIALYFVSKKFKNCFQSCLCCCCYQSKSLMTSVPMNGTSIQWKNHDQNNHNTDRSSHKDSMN
Nature of the series: SafetyScreen: ETA Human Endothelin GPCR Binding Agonist Radioligand LeadHunter Assay, catalogue number: 54. To be noted: Test compound concentration 10.0 uM.

Series [14] concerns the target Cannabinoid receptor 2 (Homo sapiens) (UniProt P34972). In words: SafetyScreen: CB2 Human Cannabinoid GPCR Binding Agonist Radioligand LeadHunter Assay, catalogue number: 37. To be noted: Test compound concentration 10.0 uM.
The target in series [15] is D(2) dopamine receptor (Homo sapiens) (UniProt P14416). In words: SafetyScreen: D2S Human Dopamine GPCR Binding Agonist Radioligand LeadHunter Assay, catalogue number: 1322. As to conditions: Test compound concentration 10.0 uM.
Chain of D(2) dopamine receptor (Homo sapiens) (P14416 whole entry): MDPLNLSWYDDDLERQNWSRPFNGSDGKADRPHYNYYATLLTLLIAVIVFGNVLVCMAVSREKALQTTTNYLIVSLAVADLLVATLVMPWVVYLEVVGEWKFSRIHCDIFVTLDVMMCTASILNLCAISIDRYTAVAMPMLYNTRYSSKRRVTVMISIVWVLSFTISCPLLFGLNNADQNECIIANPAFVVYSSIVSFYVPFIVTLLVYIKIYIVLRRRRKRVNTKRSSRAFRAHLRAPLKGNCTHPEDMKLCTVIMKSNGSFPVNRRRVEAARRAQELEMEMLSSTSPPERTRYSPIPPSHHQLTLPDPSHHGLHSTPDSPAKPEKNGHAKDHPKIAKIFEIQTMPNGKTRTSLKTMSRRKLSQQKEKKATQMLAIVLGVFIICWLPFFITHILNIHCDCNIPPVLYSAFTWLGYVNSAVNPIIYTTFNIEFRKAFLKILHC

Chain of Tyrosine-protein kinase Lck (Homo sapiens) (P06239 2-509 limits assumed): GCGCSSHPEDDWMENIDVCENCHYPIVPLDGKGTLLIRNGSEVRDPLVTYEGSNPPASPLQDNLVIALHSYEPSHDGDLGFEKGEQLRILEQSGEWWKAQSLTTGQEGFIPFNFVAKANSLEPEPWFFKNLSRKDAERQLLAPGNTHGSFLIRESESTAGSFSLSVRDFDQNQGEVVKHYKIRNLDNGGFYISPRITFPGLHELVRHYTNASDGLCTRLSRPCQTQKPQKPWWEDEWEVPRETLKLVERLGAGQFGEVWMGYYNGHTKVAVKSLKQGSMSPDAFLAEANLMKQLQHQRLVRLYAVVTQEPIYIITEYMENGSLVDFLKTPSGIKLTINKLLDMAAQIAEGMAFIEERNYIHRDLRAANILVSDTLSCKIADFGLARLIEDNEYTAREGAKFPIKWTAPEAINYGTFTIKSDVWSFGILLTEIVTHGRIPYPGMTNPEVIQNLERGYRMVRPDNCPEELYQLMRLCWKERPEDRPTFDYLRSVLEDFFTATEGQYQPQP
Chain of cGMP-inhibited 3',5'-cyclic phosphodiesterase 3A (Homo sapiens) (Q14432 whole entry): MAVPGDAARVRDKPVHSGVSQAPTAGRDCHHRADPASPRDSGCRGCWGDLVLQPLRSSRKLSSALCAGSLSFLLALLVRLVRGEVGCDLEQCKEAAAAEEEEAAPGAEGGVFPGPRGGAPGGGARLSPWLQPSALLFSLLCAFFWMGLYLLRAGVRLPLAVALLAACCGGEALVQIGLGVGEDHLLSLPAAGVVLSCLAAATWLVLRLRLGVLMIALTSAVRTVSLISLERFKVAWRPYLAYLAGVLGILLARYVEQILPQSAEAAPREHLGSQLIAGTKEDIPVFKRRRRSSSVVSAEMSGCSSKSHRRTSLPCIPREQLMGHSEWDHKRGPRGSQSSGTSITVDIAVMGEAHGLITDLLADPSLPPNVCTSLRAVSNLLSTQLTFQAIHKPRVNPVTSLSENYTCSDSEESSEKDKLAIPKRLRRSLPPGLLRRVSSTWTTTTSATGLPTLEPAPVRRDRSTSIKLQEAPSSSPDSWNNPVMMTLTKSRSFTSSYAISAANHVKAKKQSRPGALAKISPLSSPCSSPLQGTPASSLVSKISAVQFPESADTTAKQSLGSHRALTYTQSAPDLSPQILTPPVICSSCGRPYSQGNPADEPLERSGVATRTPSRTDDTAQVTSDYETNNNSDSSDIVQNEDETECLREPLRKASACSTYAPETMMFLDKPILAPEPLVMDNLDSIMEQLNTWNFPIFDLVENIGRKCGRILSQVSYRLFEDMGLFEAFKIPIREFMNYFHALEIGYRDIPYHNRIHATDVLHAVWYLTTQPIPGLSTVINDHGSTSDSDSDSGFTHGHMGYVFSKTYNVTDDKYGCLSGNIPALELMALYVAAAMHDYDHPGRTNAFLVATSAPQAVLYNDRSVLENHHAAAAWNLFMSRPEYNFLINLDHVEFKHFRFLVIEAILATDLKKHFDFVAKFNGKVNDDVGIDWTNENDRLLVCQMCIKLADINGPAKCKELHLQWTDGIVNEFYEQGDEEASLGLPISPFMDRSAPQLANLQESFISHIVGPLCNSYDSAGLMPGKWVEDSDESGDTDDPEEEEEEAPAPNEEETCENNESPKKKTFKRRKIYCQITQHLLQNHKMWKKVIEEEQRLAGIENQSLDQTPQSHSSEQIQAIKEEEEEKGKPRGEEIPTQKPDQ
Chain of Beta-2 adrenergic receptor (Homo sapiens) (P07550 whole entry, looked up): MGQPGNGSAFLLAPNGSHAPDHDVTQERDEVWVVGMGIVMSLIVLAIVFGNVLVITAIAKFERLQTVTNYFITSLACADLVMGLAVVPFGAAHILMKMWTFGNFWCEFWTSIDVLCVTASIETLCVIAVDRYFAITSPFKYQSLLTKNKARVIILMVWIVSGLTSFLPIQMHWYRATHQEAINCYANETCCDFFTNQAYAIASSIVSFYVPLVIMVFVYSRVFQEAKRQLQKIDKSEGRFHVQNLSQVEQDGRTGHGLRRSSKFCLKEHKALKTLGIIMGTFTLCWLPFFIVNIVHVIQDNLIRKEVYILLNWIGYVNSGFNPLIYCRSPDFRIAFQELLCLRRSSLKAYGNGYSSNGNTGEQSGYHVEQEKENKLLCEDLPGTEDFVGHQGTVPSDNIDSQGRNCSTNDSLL
Chain of Histamine H1 receptor (Homo sapiens) (P35367 whole entry): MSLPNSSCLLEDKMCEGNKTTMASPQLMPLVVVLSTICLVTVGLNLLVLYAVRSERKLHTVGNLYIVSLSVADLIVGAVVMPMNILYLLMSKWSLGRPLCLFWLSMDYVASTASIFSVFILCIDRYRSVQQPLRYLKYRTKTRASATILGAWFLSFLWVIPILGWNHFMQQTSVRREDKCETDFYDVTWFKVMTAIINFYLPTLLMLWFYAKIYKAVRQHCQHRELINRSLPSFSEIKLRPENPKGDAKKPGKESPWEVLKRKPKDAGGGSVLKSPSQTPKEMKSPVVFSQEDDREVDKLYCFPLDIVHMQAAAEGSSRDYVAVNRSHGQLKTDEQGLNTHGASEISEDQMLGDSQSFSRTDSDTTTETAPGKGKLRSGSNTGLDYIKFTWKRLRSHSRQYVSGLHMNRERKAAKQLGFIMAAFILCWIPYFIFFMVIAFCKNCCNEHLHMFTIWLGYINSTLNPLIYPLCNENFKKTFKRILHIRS
Chain of Adenosine receptor A2a (Homo sapiens) (P29274 whole entry): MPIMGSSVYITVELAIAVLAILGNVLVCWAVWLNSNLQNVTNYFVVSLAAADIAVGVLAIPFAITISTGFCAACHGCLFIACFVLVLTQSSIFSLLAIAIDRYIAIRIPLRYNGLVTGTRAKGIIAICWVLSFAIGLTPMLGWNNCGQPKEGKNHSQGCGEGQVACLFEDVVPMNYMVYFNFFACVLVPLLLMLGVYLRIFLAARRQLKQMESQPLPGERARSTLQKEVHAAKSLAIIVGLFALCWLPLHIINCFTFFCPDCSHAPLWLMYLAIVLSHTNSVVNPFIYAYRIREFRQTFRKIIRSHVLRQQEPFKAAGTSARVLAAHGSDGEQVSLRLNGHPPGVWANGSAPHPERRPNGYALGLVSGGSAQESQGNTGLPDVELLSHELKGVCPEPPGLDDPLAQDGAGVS

Regarding `CNC(=O)Cn1cc(-c2cc3c(N[C@@H](c4ccc5c(c4)S(=O)(=O)CCC5)C(C)C)ncnc3[nH]2)cn1`, the inhibition was -7% in [1]; 35% in series [2]; 21% in series [3]; -5% in series [4]; 23% in series [5]; 9% in series [7]. For the same compound, the inhibition was -9% in series [8]; 0% in series [9]; 30% in [10]; 1% in series [11]; 5% in [12]; -4% in series [13]. Moreover, the Inhibition in series [6] stood at 4%.

Consider `CNCc1cc(-c2cc3c(N[C@@H](c4ccc5c(c4)S(=O)(=O)CCC5)C(C)C)ncnc3[nH]2)co1`, for which the inhibition in series [1] is 39%; in [14] it was -8%; in [2] it was 28%; in [3], 57%; in series [4], -3%; in series [5], 21%. Besides, the inhibition is 47% in series [7]; -5% in series [8]; 6% in series [9]; 68% in series [10]; -9% in series [15]; 14% in [11]. The figures for the inhibition in series [12] and in series [13] were 0% and -1%, respectively.

`COc1ccc([C@H](Cc2nnn[nH]2)NC(=O)c2ncnc3[nH]ccc23)cc1`: the inhibition was -5% in [1]; 0% in series [2]; 2% in [3]; -4% in [4]; -4% in [7]; 62% in series [8]. The inhibition is -6% in series [9]; 4% in series [10]; -4% in series [15]; 6% in series [12]; 2% in series [13]. The compound also came in with an Inhibition in series [6] of 5%.

Turning to `CC(C)[C@H](Nc1ncnc2[nH]ccc12)c1ccc2c(c1)S(=O)(=O)CCC2`, the inhibition in series [1] was -3%; in series [2] it was 4%; in series [3], 84%; in series [4], -3%; in series [5] it was 11%; in [7], 19%. Besides, the inhibition is 29% in [8]; -1% in [9]; 10% in series [10]; -4% in series [11]; 8% in [12]; -1% in series [13]. The compound further displayed an Inhibition in [6] of 20%.

For the compound `Cc1nn(C)cc1-c1cc2c(N[C@H](c3ccc4c(c3)S(=O)(=O)CCC4)C(C)C)ncnc2[nH]1`, the inhibition is -2% in series [1]; -8% in series [14]; 29% in [2]; 45% in [3]; 0% in [4]; 13% in series [5]. In addition, the inhibition in series [7] was 11%; in series [8], 46%; in series [9] it was -7%; in series [10], 33%; in [11], 3%; in series [12], 6%. Also, the inhibition in series [13] is -4%. Moreover, the Inhibition in series [6] is listed as 3%.

Take `C[C@H](C(=O)O)[C@@H](NC(=O)c1ncnc2[nH]ccc12)c1ccc(Br)cc1`: the inhibition is -6% in series [1]; -5% in [14]; -4% in [2]; 2% in series [3]; -8% in series [4]; -1% in series [7]. The inhibition was 52% in series [8]; -8% in [9]; 4% in series [10]; -1% in series [15]; -8% in series [11]; 2% in [12]. In addition, the inhibition in series [13] was -2%. Moreover, in [6], the Inhibition amounted to 14%.
